Assay results: US11034692B1 (Genentech, Inc., priority 2017, dated 2021)

Each compound was assayed against HPK1 (assay: HPK1 Lantha Binding Assay ("Lanth")). Settings: Table B1-1, read-out: HPK1 Ki (μM) (Lanth).
Experimental: HPK1 Lantha Binding Assay (“Lanth”)
The compounds to be tested were diluted by preparing 12.5 uL/well of 5 mM compound (100×) in columns 2 and 13 and 10 ul/well of DMSO in columns 3-12, 14-23, and wells A1-H1 and I24-P24 of the compound plate using a Bravo liquid handling platform. For the reference compound, the top concentration was 1 mM. To the plate was added 10 ul 2 mM staurosporine in wells J1-P1 and A24-H24. A 11 point 5-fold compound serial dilution was performed using the Bravo liquid handling platform. From the plate were transferred 2.5 ul of the solutions from column 2 and column 13 to the 10 ul of DMSO in columns 3 and 14 & so on. The compound plate was centrifuged at 2500 rpm for 1 min. From the compound plate was transferred 80 nl of the compounds into an assay plate using the Echo liquid handler system. One compound plate makes two assay plates. Each assay plate is sealed and stored in an N2 cabinet.
The following assay concentrations and times were used: 2 nM HPK1, 2 nM Eu-Anti-GST Ab, and 15 nM Tracer222, with 60 min incubation time.
III. HPK Lantha Binding Assay:
For the binding assay, 4 ul 2×HPK1 and Eu-anti-GST antibody were added to each well of the assay plate using a Multidrop reagent dispenser. The solutions were incubated in a 23 C incubator for 1 h. To each well of the assay plate was added 4 ul 2× Tracer-222 using a Multidrop reagent dispenser. The solutions were again incubated in a 23 C incubator for 1 h. The results of the assay were read using an Envision plate reader with the following parameters: TR_FRET, 340ex/615 and 665em; 100 usec Delay; and 200 usec integration.
Compound Ki was analyzed using Morrison ki fit model in XL-fit • a. fit=(1−((((E+x)+(Ki*(1+(S/Kd))))−(((((E+x)+(Ki*(1+(S/Kd))))[…])−((4*E)*x))^0.5))/(2*E))) • res=(y-fit) • b. Parameters: • E=enzyme concentration • S=Tracer222 concentration, Kd=Tracer222 Kd • All measurements reported using the same units (uM)
Exemplary compounds of Formula I or Ia were tested in the binding assays. The Ki data in Table B1-1 are based on the “Lanth” assay.
In the case of `N#C[C@@H]1C[C@H]1C(=O)Nc1cc2cc(-c3cnccc3-c3cc[nH]n3)nc(N)c2cn1` [Compound 243, (1R,2R)—N-(6-(4-(1H-pyrazol-3-yl)pyridin-3-yl)-8-amino-2,7-naphthyridin-3-yl)-2-cyanocyclopropanecarboxamide], the Ki is reported as 1.37 nM.
With `CCc1ccncc1-c1cc2cc(Nc3cnn(CCO)c3)ncc2c(N)n1` [Compound 168, 2-[4-[[8-amino-6-(4-ethyl-3-pyridyl)-2,7-naphthyridin-3-yl]amino]pyrazol-1-yl]ethanol] the Ki was 2 nM.
`Cc1ccncc1-c1cc2cc(Nc3cnn(CC(F)F)c3)ncc2c(N)n1` [Compound 257, 6-N-[1-(2,2-difluoroethyl)-1H-pyrazol-4-yl]-3-(4-methylpyridin-3-yl)-2,7-naphthyridine-1,6-diamine] was tested, and the Ki was 1.01 nM.
With `Cc1ccncc1-c1cc2cc(NC(=O)[C@H]3[C@@H]4CNC(=O)[C@@H]43)ncc2c(N)n1` [Compound 158, Exo-N-(8-amino-6-(4-methylpyridin-3-yl)-2,7-naphthyridin-3-yl)-2-oxo-3-azabicyclo[3.1.0]hexane-6-carboxamide] the Ki was 3.6 nM.
Compound `N#CC[C@H]1C[C@@H]1C(=O)Nc1cc2cc(-c3c(Cl)cccc3Cl)nc(N)c2cn1` [Compound 310, (1S,2R)—N-(8-amino-6-(2,6-dichlorophenyl)-2,7-naphthyridin-3-yl)-2-(cyanomethyl)cyclopropanecarboxamide] has a Ki of 0.0675 nM.
`CCc1ccncc1-c1cc2cc(NC(=O)c3cc[nH]n3)ncc2c(N)n1` [Compound 71, 2H-Pyrazole-3-carboxylic acid [8-amino-6-(4-ethylpyridin-3-yl)-[2,7]naphthyridin-3-yl]amide] showed a Ki of 10 nM.
`Cc1ccncc1-c1cc2cc(NC(=O)[C@H]3C[C@@H]3c3cnn(C)c3)ncc2c(N)n1` [Compound 197, (1S,2S)—N-(8-amino-6-(4-methylpyridin-3-yl)-2,7-naphthyridin-3-yl)-2-(1-methyl-1H-pyrazol-4-yl)cyclopropane-1-carboxamide] was tested, and the Ki was 0.027 nM.
With `CCc1ccncc1-c1cc2cc(Nc3ccn(C)n3)ncc2c(N)n1` [Compound 76, 3-(4-Ethylpyridin-3-yl)-N6-(1-methyl-1H-pyrazol-3-yl)-[2,7]naphthyridine-1,6-diamine] the Ki was 1.3 nM.
`Cc1ccncc1-c1cc2cc(Nc3ccn(C)c(=O)c3)ncc2c(N)n1` [Compound 170, 4-[[8-amino-6-(4-methyl-3-pyridyl)-2,7-naphthyridin-3-yl]amino]-1-methyl-pyridin-2-one] was tested, and the Ki was 3 nM.
Work on `Cc1ccncc1-c1nc(N)c2cnc(NC(=O)[C@@H]3C[C@H]3c3cn[nH]c3)cc2c1F` [Compound 196, (1R,2R)—N-(8-amino-5-fluoro-6-(4-methylpyridin-3-yl)-2,7-naphthyridin-3-yl)-2-(1H-pyrazol-4-yl)cyclopropane-1-carboxamide] yielded a Ki of 6.01 nM.
With `Cc1ccncc1-c1cc2cc(NC(=O)[C@@H]3C[C@H]3C(C)(C)O)ncc2c(N)n1` [Compound 241, (1R,2R)—N-[8-amino-6-(4-methylpyridin-3-yl)-2,7-naphthyridin-3-yl]-2-(2-hydroxypropan-2-yl)cyclopropane-1-carboxamide] the Ki was 2.19 nM.
`Nc1nc(-c2cnccc2CCO)cc2cc(NC(=O)[C@H]3C[C@@H]3c3cnsc3)ncc12` [Compound 245, (1S,2S)—N-(8-amino-6-(4-(2-hydroxyethyl)pyridin-3-yl)-2,7-naphthyridin-3-yl)-2-(isothiazol-4-yl)cyclopropanecarboxamide] showed a Ki of 5.42 nM.
`CCc1ccncc1-c1cc2cc(NC(=O)CC#N)ncc2c(N)n1` [Compound 32, N-[8-amino-6-(4-ethyl-3-pyridyl)-2,7-naphthyridin-3-yl]-2-cyano-acetamide] gave a Ki of 26.4 nM.
In the case of `Cc1cc2c(cc1-c1cc3cc(NC(=O)[C@H]4C[C@@H]4C#N)ncc3c(N)n1)C(O)C(=O)N2` (relative stereo) [Compound 160, trans-N-[8-amino-6-(3-hydroxy-6-methyl-2-oxo-indolin-5-yl)-2,7-naphthyridin-3-yl]-2-cyano-cyclopropanecarboxamide], the Ki is reported as 1.2 nM.
`Cn1cc(-c2cc3cc(NC(=O)[C@@H]4C[C@@H]4F)ncc3c(N)n2)cn1` [Compound 7, (1S,2S)—N-(8-amino-6-(1-methyl-1H-pyrazol-4-yl)-2,7-naphthyridin-3-yl)-2-fluorocyclopropanecarboxamide] was tested, and the Ki was 2.89 nM.
In the case of `COCCn1cc([C@H]2C[C@@H]2C(=O)Nc2cc3cc(-c4cnccc4C)nc(N)c3cn2)cn1` [Compound 331, (1S,2S)—N-(8-amino-6-(4-methylpyridin-3-yl)-2,7-naphthyridin-3-yl)-2-(1-(2-methoxyethyl)-1H-pyrazol-4-yl)cyclopropanecarboxamide], the Ki is reported as 1.12 nM.
`Cc1ccncc1-c1nc(N)c2cnc(NC(=O)[C@@H]3C[C@H]3c3cnn(C)c3)cc2c1Cl` [Compound 234, (1R,2R)—N-(8-amino-5-chloro-6-(4-methylpyridin-3-yl)-2,7-naphthyridin-3-yl)-2-(1-methyl-1H-pyrazol-4-yl)cyclopropanecarboxamide] gave a Ki of 0.078 nM.
`Cc1ccncc1-c1cc2cc(Nc3cc(C4CC4)n(CCO)n3)ncc2c(N)n1` [Compound 259, 2-(3-[[8-amino-6-(4-methylpyridin-3-yl)-2,7-naphthyridin-3-yl]amino]-5-cyclopropyl-1H-pyrazol-1-yl)ethan-1-ol] gave a Ki of 146 nM.
For `Nc1nc(-c2cnccc2C(F)F)cc2cc(NC(=O)[C@@H]3C[C@@H]3F)ncc12` [Compound 14, (1S,2S)—N-(8-amino-6-(4-(difluoromethyl)pyridin-3-yl)-2,7-naphthyridin-3-yl)-2-fluorocyclopropanecarboxamide], the Ki was 9.46 nM.
For `Cc1cc(-c2ncco2)ncc1-c1cc2cc(NC(=O)[C@H]3C[C@@H]3c3cnn(C)c3)ncc2c(N)n1` [Compound 308, (1S,2S)—N-[8-amino-6-[4-methyl-6-(1,3-oxazol-2-yl)pyridin-3-yl]-2,7-naphthyridin-3-yl]-2-(1-methyl-1H-pyrazol-4-yl)cyclopropane-1-carboxamide], the Ki was 3.04 nM.
In the case of `Cc1c(F)cncc1-c1cc2cc(NC(=O)[C@@H]3C[C@@H]3F)ncc2c(N)n1` [Compound 17, (1S,2S)—N-(8-amino-6-(5-fluoro-4-methylpyridin-3-yl)-2,7-naphthyridin-3-yl)-2-fluorocyclopropanecarboxamide], the Ki is reported as 16.1 nM.
`Cc1ccncc1-c1cc2cc(NC(=O)[C@@H]3C[C@H]3CC#N)ncc2c(N)n1` [Compound 194, (1R,2S)—N-(8-amino-6-(4-methylpyridin-3-yl)-2,7-naphthyridin-3-yl)-2-(cyanomethyl)cyclopropane-1-carboxamide] gave a Ki of 0.967 nM.
`Cc1ccncc1-c1cc2cc(NC(=O)C3CC3(F)F)ncc2c(N)n1` (centres unmarked) [Compound 11, N-(8-amino-6-(4-methylpyridin-3-yl)-2,7-naphthyridin-3-yl)-2,2-difluorocyclopropanecarboxamide] was tested, and the Ki was 3.65 nM.
For `Cc1ccnc(-c2ccccc2)c1-c1cc2cc(NC(=O)[C@@H]3C[C@H]3c3cnn(C)c3)ncc2c(N)n1` [Compound 319, (1R,2R)—N-(8-amino-6-(4-methyl-2-phenylpyridin-3-yl)-2,7-naphthyridin-3-yl)-2-(1-methyl-1H-pyrazol-4-yl)cyclopropanecarboxamide], the Ki was 0.02 nM.
With `Cn1cc([C@H]2C[C@@H]2C(=O)Nc2cc3cc(-c4c(F)cccc4F)nc(N)c3cn2)cn1` (stereo in doubt) [Compound 306, (1S,2S)—N-[8-amino-6-(2,6-difluorophenyl)-2,7-naphthyridin-3-yl]-2-(1-methyl-1H-pyrazol-4-yl)cyclopropane-1-carboxamide] the Ki was 3.25 nM.
`N#CC[C@@H]1C[C@H]1C(=O)Nc1cc2cc(-c3c(Cl)cccc3Cl)nc(N)c2cn1` [Compound 311, (1R,2S)—N-(8-amino-6-(2,6-dichlorophenyl)-2,7-naphthyridin-3-yl)-2-(cyanomethyl)cyclopropanecarboxamide] gave a Ki of 1.15 nM.
In the case of `Cn1cc([C@H]2C[C@@H]2C(=O)Nc2cc3cc(-c4ccccc4Cl)nc(N)c3cn2)cn1` [Compound 305, (1R,2R)—N-[8-amino-6-(2-chlorophenyl)-2,7-naphthyridin-3-yl]-2-(1-methyl-H-pyrazol-4-yl)cyclopropane-1-carboxamide], the Ki is reported as 0.152 nM.
In the case of `CC(=O)N1C[C@@H]2[C@H](C1)[C@H]2C(=O)Nc1cc2cc(-c3cnccc3C)nc(N)c2cn1` [Compound 143, exo-3-acetyl-N-[8-amino-6-(4-methyl-3-pyridyl)-2,7-naphthyridin-3-yl]-3-azabicyclo[3.1.0]hexane-6-carboxamide], the Ki is reported as 5.9 nM.

Same assay, conditions: Table B1-2, read-out: HPK1 Ki, L = Lanth
`Cc1cccc(F)c1-c1cc2cc(Nc3cc4n(n3)CC(=O)N(C)CC4)ncc2c(N)n1` [Compound 426, 2-((8-amino-6-(2-fluoro-6-methylphenyl)-2,7-naphthyridin-3-yl)amino)-6-methyl-5,6-dihydro-4H-pyrazolo[1,5-d][1,4]diazepin-7(8H)-one] was tested, and the Ki was 0.02 nM.
